This is an account of results in US4374149A, “α-{[(Arylalkyl)amino]alkyl}-4-hydroxy-3-(lower-alkylsul finyl)benzenemethanols” (Sterling Drug Inc., priority 1978, dated 1983).

Common to all, as to assay type: in vivo
Assay [1] has as its system systolic blood pressure. The experiment in a line: Antihypertensive activity, reduction in systolic blood pressure, single oral medication, unanesthetized spontaneous hypertensive rat. To be noted: P.O.; for Antihypertensive activity SH Rat AHD40 (single oral dose required to induce a 40 mm. average reduction in systolic blood pressure): unanesthetized SH rat.
Procedure: Antihypertensive activity was determined on the basis of the observed reduction in systolic blood pressure measured according to the method of H. Kersten et al., J. Lab. and Clin. Med. 32, 1090 (1947) following a single oral medication in the unanesthetized spontaneous hypertensive rat described by Okamato et al., Japan Circulation J. 27, 282 (1963).
^a AHD40 = single oral dose required to induce a 40 mm. average
Assay [2] relates to β-adrenergic. The experiment in a line: β-adrenergic blocking activity, inhibition of isoproterenol-elicited heart rate increase in pentobarbitalized dog. Particulars: i.v.; for Dog β-blockade AED50 (approximate intravenous dose for 50% inhibition of isoproterenol-elicited heart rate increase): pentobarbitalized dog.
Procedure: The β-adrenergic blocking activity was determined in the pentobarbitalized dog as judged by the ability of the test compound to inhibit the elevation in heart rate elicited by a 0.5 mcg./kg. i.v. injection of isoproterenol.
^e AED50 = approximate intravenous dose required to cause 50%
Assay [3] has as its system blood pressure. The experiment in a line: Antihypertensive activity, sustained lowering of blood pressure, repeated oral medication, unanesthetized trained renal hypertensive dog. Particulars: administered once per day.
Source text: Antihypertensive activity was also judged on the basis of sustained reduction of blood pressure observed in the unanesthetized trained renal hypertensive dog following repeated oral medication according to the procedure described by Lape et al., Arch.
^b MED10 = minimum repeated oral daily dose required to effect a

Structures are written as SMILES. Counter-ions that a name gives are not always drawn. Some results are limits rather than exact numbers.

With `COc1ccc(CCC(C)NCC(O)c2ccc(OC(=O)c3ccccc3)c([S+](C)[O-])c2)cc1` (stereo not drawn) [Example 8, 4-hydroxy-α-<{[3-(4-methoxyphenyl)-1-methylpropyl]amino}methyl>-3-(methylsulfinyl)benzenemethanol 4-benzoate hemi-sulfate], in assay [1], the “Antihypertensive activity SH Rat AHD40 (single oral dose required to induce a 40 mm. average reduction in systolic blood pressure)” value is 9 mg/kg.
Take `COc1ccc(CCC(C)NCC(=O)c2ccc(OC(=O)c3ccccc3)c([S+](C)[O-])c2)cc1Br` (stereo not shown) [Example 7E, 4'-hydroxy-2-{[3-(3-bromo-4-methoxyphenyl)-1-methylpropyl]-amino}-3'-(methylsulfinyl)acetophenone 4'-benzoate hydrochloride]: the “Actual percentage inhibition of heart rate increase above control level observed at the indicated dose” value in assay [2] (1.0 mg./kg.) worked out at 12%. Further, the “Dog β-blockade AED50 (approximate intravenous dose for 50% inhibition of isoproterenol-elicited heart rate increase)” value in assay [2] is above 1.0 mg/kg. The “Antihypertensive activity SH Rat AHD40 (single oral dose required to induce a 40 mm. average reduction in systolic blood pressure)” value in assay [1] was 30 mg/kg. Also, the “Renal Hypertensive Dog MED10 (minimum repeated oral daily dose for sustained lowering of blood pressure of 10% or greater)” value in assay [3] was “~.10 mg/kg”.
Turning to `CC(CCc1ccc(O)cc1)NCC(O)c1ccc(O)c([S+](C)[O-])c1` (single isomer, unassigned) [Example 23C, 4-hydroxy-α-<{[4-(4-hydroxyphenyl)-1-methylpropyl]amino}methyl>-3-(methylsulfinyl)benzenemethanol cyclohexylsulfamate salt], the “Actual percentage inhibition of heart rate increase above control level observed at the indicated dose” value in assay [2] (0.025 mg./kg.) is recorded as 80%. Besides, the “Dog β-blockade AED50 (approximate intravenous dose for 50% inhibition of isoproterenol-elicited heart rate increase)” value in assay [2] was below 0.025 mg/kg. The “Antihypertensive activity SH Rat AHD40 (single oral dose required to induce a 40 mm. average reduction in systolic blood pressure)” value in assay [1] is 40.0 mg/kg.
With `CCOCCOc1ccc(C(O)CNC(C)CCc2ccc(OC)cc2)cc1[S+](C)[O-]` (stereo not drawn) [Example 32E, 4-[2-(ethoxy)ethoxy]-α-<{[3-(4-methoxyphenyl)-1-methylpropyl]amino}methyl>-3-(methylsulfinyl)benzenemethanol hydrochloride], the “Antihypertensive activity SH Rat AHD40 (single oral dose required to induce a 40 mm. average reduction in systolic blood pressure)” value in assay [1] was above 150 mg/kg.
Regarding `CC(CCc1ccccc1)NCCc1ccc(O)c([S+](C)[O-])c1` (stereo not shown) [Example 33C, 4-<2-{[1-methyl-3-phenylpropyl]amino}ethyl>-2-(methylsulfinyl)phenolhydrochloride], the “Dog β-blockade AED50 (approximate intravenous dose for 50% inhibition of isoproterenol-elicited heart rate increase)” value in assay [2] amounted to 1.0 mg/kg. The “Actual reduction in blood pressure observed at the indicated dose” value (shortened to “Actual reduction”) in assay [1] (50 mg./kg.) is given as -28 mm. Hg. In addition, in assay [1], the “Antihypertensive activity SH Rat AHD40 (single oral dose required to induce a 40 mm. average reduction in systolic blood pressure)” value was above 50 mg/kg.
Consider `COc1ccc(CCCC(C)(C)NCC(O)c2ccc(O)c([S+](C)[O-])c2)cc1` (stereo not drawn) [Example 22D, 4-hydroxy-α-<{[4-(4-methoxyphenyl)-1,1-dimethylbutyl]amino}methyl>-3-(methylsulfinyl)benzenemethanol], for which the “Actual reduction” value in assay [1] (50 mg./kg.) is recorded as -12 mm. Hg. Besides, the “Antihypertensive activity SH Rat AHD40 (single oral dose required to induce a 40 mm. average reduction in systolic blood pressure)” value in assay [1] was above 50.0 mg/kg.
For `COc1ccc(CCC(C)NCCc2ccc(O)c([S+](C)[O-])c2)cc1` (stereo not shown) [Example 37C, 4-<2-{[3-(4-methoxyphenyl)-1-methylpropyl]amino}ethyl>-2-(methylsulfinyl)phenol hydrochloride], the “Actual reduction” value in assay [1] (150 mg./kg., hydrochloride) is listed as -21 mm. Hg. The “Antihypertensive activity SH Rat AHD40 (single oral dose required to induce a 40 mm. average reduction in systolic blood pressure)” value in assay [1] is above 150 mg/kg.
Take `C[S+]([O-])c1cc(CCNC(C)(C)CCc2ccccc2)ccc1O.Cl` (stereo not shown) [Example 35C, 4-{2-[(1,1-dimethyl-3-phenylpropyl)amino]ethyl}-2-(methylsulfinyl)phenol hydrochloride]: the “Dog β-blockade AED50 (approximate intravenous dose for 50% inhibition of isoproterenol-elicited heart rate increase)” value in assay [2] was determined as 0.6 mg/kg. Moreover, the “Actual reduction” value in assay [1] (50 mg./kg.) is recorded as -20 mm. Hg. In assay [1], the “Antihypertensive activity SH Rat AHD40 (single oral dose required to induce a 40 mm. average reduction in systolic blood pressure)” value is above 50 mg/kg.
On to `COc1ccc(CCC(C)NCC(O)c2ccc(O)c([S+](C)[O-])c2)cc1` (stereo not shown) [Example 24C, hydrochloride], for which the “Dog β-blockade AED50 (approximate intravenous dose for 50% inhibition of isoproterenol-elicited heart rate increase)” value in assay [2] (hydrochloride) is on record as “ca. 0.50 mg./kg”. Also, the “Actual reduction” value in assay [1] (50 mg./kg.) was -12 mm. Hg. Further, the “Antihypertensive activity SH Rat AHD40 (single oral dose required to induce a 40 mm. average reduction in systolic blood pressure)” value in assay [1] (hydrochloride) was above 50 mg/kg.
On to `CC(CCc1ccc2c(c1)OCO2)NCC(O)c1ccc(O)c([S+](C)[O-])c1` (stereo not drawn) [Example 31C, 4-hydroxy-α-<{[3-(3,4-methylenedioxyphenyl)-1-methylpropyl]amino}methyl>-3-(methylsulfinyl)benzenemethanol hydrochloride], for which the “Actual percentage inhibition of heart rate increase above control level observed at the indicated dose” value in assay [2] (0.025 mg./kg.) is 60%. For the same compound, the “Dog β-blockade AED50 (approximate intravenous dose for 50% inhibition of isoproterenol-elicited heart rate increase)” value in assay [2] is below 0.025 mg/kg. Further, the “Actual reduction” value in assay [1] (50 mg./kg.) is reported as -54 mm. Hg. In assay [1], the “Antihypertensive activity SH Rat AHD40 (single oral dose required to induce a 40 mm. average reduction in systolic blood pressure)” value was below 50 mg/kg.
As to `COc1ccc(CC(C)NC(C)C(O)c2ccc(O)c([S+](C)[O-])c2)cc1` (stereo not drawn) [Example 15F, 4-hydroxy-α-<{1-[2-(4-methoxyphenyl)-1-methylethyl]amino}ethyl>-3-(methylsulfinyl)benzenemethanol acetate salt], in assay [1] (20 mg./kg.), the “Actual reduction” value was -25 mm. Hg. Moreover, the “Antihypertensive activity SH Rat AHD40 (single oral dose required to induce a 40 mm. average reduction in systolic blood pressure)” value in assay [1] was above 20.0 mg/kg.
Turning to `COc1cc(CCNCC(O)c2ccc(O)c([S+](C)[O-])c2)cc(OC)c1OC` (stereo not drawn) [Example 28C, 4-hydroxy-3-(methylsulfinyl)-α-<{[2-(3,4,5-trimethoxyphenyl)ethyl]-amino}methyl>benzenemethanol hydrochloride], the “Actual reduction” value in assay [1] (50 mg./kg.) is -15 mm. Hg. The “Antihypertensive activity SH Rat AHD40 (single oral dose required to induce a 40 mm. average reduction in systolic blood pressure)” value in assay [1] is above 50 mg/kg.
Consider `COc1ccc(CCC(C)NCC(=O)c2ccc(OC(=O)c3ccccc3)c([S+](C)[O-])c2)cc1` (stereo not shown) [Example 25, 4'-hydroxy-2-{[3-(4-methoxyphenyl)-1-methylpropyl]amino}-3'-(methylsulfinyl)acetophenone 4'-benzoate hydrochloride], for which the “Actual reduction” value in assay [1] (50 mg./kg.) is reported as -12 mm. Hg. For the same compound, the “Antihypertensive activity SH Rat AHD40 (single oral dose required to induce a 40 mm. average reduction in systolic blood pressure)” value in assay [1] is above 50 mg/kg.
In the case of `COc1ccc(CCC(C)NCCc2ccc(O)c([S+](C)[O-])c2)cc1` (stereo not shown) [Example 36C, 4-<2-{[3-(4-methoxyphenyl)-1-methylpropyl]amino}ethyl>-2-(methylsulfinyl)phenol hydrochloride], the “Actual reduction” value in assay [1] (150 mg./kg., hydrochloride) is on record as -28 mm. Hg. In assay [1], the “Antihypertensive activity SH Rat AHD40 (single oral dose required to induce a 40 mm. average reduction in systolic blood pressure)” value was above 150 mg/kg.
Take `COc1ccc(CCNCC(O)c2ccc(O)c([S+](C)[O-])c2)cc1OC` (stereo not drawn) [Example 27C, α-<{[2-(3,4-dimethoxyphenyl)ethyl]amino}-methyl>-4-hydroxy-3-(methylsulfinyl)benzenemethanol hydrochloride]: the “Dog β-blockade AED50 (approximate intravenous dose for 50% inhibition of isoproterenol-elicited heart rate increase)” value in assay [2] was “ca. 0.10 mg./kg”. Also, the “Actual reduction” value in assay [1] (50 mg./kg.) is -26 mm. Hg. Besides, the “Antihypertensive activity SH Rat AHD40 (single oral dose required to induce a 40 mm. average reduction in systolic blood pressure)” value in assay [1] is above 50 mg/kg.
